Experiments:
[1] = Stability at pH 7.4 in PBS in the presence of L-cysteine (50x); format: physicochemical; settings: pH 7.4, 37 °C; for half-life at 100 µM: phosphate buffer (PBS) with L-cysteine, read-out: t1/2, buffer + cysteine (50×) (converted)
Description: (§1) The compounds were solubilized at a concentration of 100 µM (starting from a 10 mM stock solution in DMSO) in 0.1 M PBS, pH = 7.4, in the absence or presence of 5 mM L-cysteine (50×). The solutions were incubated at 37.0 ± 0.5 °C, and at appropriate time intervals, aliquots were analyzed by RP-HPLC as described below. All experiments were performed at least in triplicate.
(§2) RP-HPLC analysis was performed with an HP 1100 chromatograph system (Agilent Technologies, Palo Alto, CA, USA) equipped with an injector (Rheodyne, Cotati, CA, USA), a quaternary pump (model G1311A), a membrane degasser (model G1379A), and a diode-array detector (DAD, model G1315B) integrated into the HP1100 system. The data were processed using an HP ChemStation system (Agilent Technologies, Palo Alto, CA, USA). A stationary phase Tracer Excel 120 ODSB (25 × 0.46, 5 μm; Tecnokroma (Teknokroma Analytical S.A., Barcelona, Spain)) was used. The mobile phase consisted of acetonitrile 0.1% HCOOH/water 0.1% HCOOH at a flow rate of 1.0 mL/min, with gradient elution: 35% acetonitrile up to 5 min, 35 to 80% acetonitrile between 5 and 10 min, 80% acetonitrile between 10 and 20 min. The injection volume was 20 μL. The column effluent was monitored for each compound at the wavelength of maximum absorption (referenced against a 700 nm wavelength). Using this RP-HPLC procedure, we separated the compounds from any degradation products and we quantified the compounds during incubation time. The quantification was performed using a calibration curve obtained with standard solutions of compounds chromatographed under the same experimental conditions, in a concentration range of 1–100 μM (r^2 > 0.99).

[2] = Stability of the compounds in human serum (RP-HPLC); format: in vitro ADME; settings: 37 °C; for % Compd ± SE: 200 µM; for half-life at 200 µM: male, read-out: Half-life (t1/2)
Description: A solution of each compound (10 mM) in DMSO was added to human serum (obtained by filtration and sterilization from AB, Sigma-Aldrich (Merck KGaA, 64,271 Darmstadt, Germany) male human blood) and was preheated to 37 °C to obtain a final concentration of 200 µM. The resulting solution was incubated at 37.0 ± 0.5 °C, and aliquots of 300 µL were taken at appropriate time intervals and added to 300 µL of CH3CN acidified with 0.1% formic acid in order to deproteinize the serum. The mixture was centrifuged for 10 min at 2150× g, and the clear supernatant was filtered (PTFE filters, 0.45 µm, VWR (VWR International S.r.l., Milano, Italy)) and analyzed by RP-HPLC as described below. All experiments were performed at least in triplicate.
as §2

[3] = Stability at pH 7.4 in phosphate buffer (PBS); format: physicochemical; settings: PBS pH 7.4, 37 °C
Description: as §1, §2

rat aorta strips = assay: Vasodilating activity on endothelium-denuded rat aorta strips precontracted with KCl; format: cell-based; settings: for EC50: endothelium-denuded rat aorta strips precontracted with 25 mM KCl, read-out: Vasodilating activity EC50 ± SEM; for Effect of glibenclamide on the concentration-response curve / EC50: presence vs absence of K+ATP channel blocker glibenclamide; for activation at 300 µM / activation at 10 µM / activation at 100 µM: rat aorta strips precontracted with KCl, read-out: % Vasodilation at the maximum concentration testable
Description: Vasodilating activity was studied on the thoracic aortas from male Wistar rats (180–200 g), following a protocol published elsewhere. All synthesized compounds were dissolved in DMSO. The addition of the vehicle had no perceptible consequence on contraction level. Results were expressed as EC50 ± SE (μM), n = 3–8.
The vasodilator action of H2S-releasing compounds was evaluated on endothelium-denuded rat aorta strips precontracted with KCl. The results reported in Table 1 show the heterogeneous behavior of the tested compounds.

[4] = tested on: endothelium-intact rat aortic rings; assay: Vasoprotection: acetylcholine-induced relaxation in rat aortic rings with endothelium impairment induced by pyrogallol; format: cell-based
Description: The experiments were performed on rat thoracic aortic rings from male Wistar rats (180–200 g), prepared as previously described. The effect of H2S donor or catechin, taken as a reference, on acetylcholine-induced relaxation in aortic rings pre-incubated with pyrogallol was studied as published elsewhere, with some modifications. Aortic rings were incubated with diethyldithiocarbamate (DETCA) 10 mM for 1 h to irreversibly inactivate endogenous superoxide dismutase (SOD). Then, the aortic rings were washed and randomly divided into four groups: (1) control: endothelium-intact rings incubated in Krebs’ solution with vehicle only (DMSO); (2) H2S donor: endothelium-intact rings incubated with H2S donor (100 μM) or reference catechin (10 mM) for 30 min; (3) pyrogallol: endothelium-intact rings incubated with 500 μM pyrogallol for 15 min; (4) H2S donor plus pyrogallol: endothelium-intact rings incubated with H2S donor (100 μM) or reference catechin (10 mM) for 30 min and 500 μM pyrogallol for the last 15 min. After the incubation time, the rings were washed, 1 μM phenylephrine was added to the organ baths, then acetylcholine (10^−9–l0^−5 M) was added cumulatively. Tension was measured and calculated as the percentage of contraction in response to phenylephrine (1 μM). Data were expressed as mean ± SEM, n = 3–9.
Figure 3 Effect of 6 (100 μM) on acetylcholine-induced vasodilation in endothelium-intact rat aortic rings. […] Statistical analyses were made using Student’s t-test for unpaired data. ** p < 0.01 vs. the pyrogallol group.

Compound | Stability (% compound ± SE), buffer + cysteine (50×) ([1]; 1 h) | Stability (% compound ± SE), buffer + cysteine (50×) ([1]; 24 h) | % Compd ± SE ([2]; 1 h) | % Compd ± SE ([2]; 4 h) | % Compd ± SE ([2]; 24 h) | Stability (% compound ± SE), buffer ([3]; 24 h) | half-life at 200 µM [2] | also measured
C=CCSCC(NC(C)=O)C(=O)O (stereo not shown) [Compound 1] | 87.3 ± 1.0% | 69.5 ± 1.0% | 88 ± 1% | 35 ± 1% | 8.0 ± 0.5% | 91.5 ± 1.0% |  | Stability (% compound ± SE), buffer + cysteine (50×) ([1]; 6 h): 72.5 ± 1.0%
C=CCSSCCC(=O)O [Compound 3] |  |  | 80.0 ± 1.0% | 62 ± 2% | 44 ± 1% | 101.0 ± 1.0% |  | half-life at 100 µM [1]: ~0.167 h
C=CCSSCCC(=O)OCC [Compound 4] |  |  |  |  |  |  | < 0.5 h | % Vasodilation at the maximum concentration testable, + Glib. 10 μM (rat aorta strips; 100 μM, in the presence of glibenclamide 10 μM): [44 ± 3] ^2%; EC50 (rat aorta strips): 64 ± 6 µM; Effect of glibenclamide on the concentration-response curve / EC50 (rat aorta strips): significantly rightward shifted
C=CCSSCC(NC(C)=O)C(=O)O (stereo not shown) [Compound 5] |  |  | 64 ± 1% | 39 ± 1% | 16 ± 1% | 87.7 ± 1.0% |  | half-life at 100 µM [1]: ~0.0833 h; activation at 300 µM (rat aorta strips): 16%
O=C(O)CCC(=O)NSC(=O)c1ccccc1 [Compound 7] |  |  | 19.8 ± 0.7% | 0% | 0% | 57.1 ± 3.3% |  | half-life at 100 µM [1]: ~1.3 h; activation at 300 µM (rat aorta strips): 12%; Stability (% compound ± SE), buffer ([3]; 6 h): 91.6 ± 1.1%
CC(=O)NSC(=O)c1ccccc1 [Compound 8] |  |  |  |  |  |  | < 0.5 h | Ach-induced maximum relaxation ([4]; H2S donor 100 μM without exposure to pyrogallol): did not reduce Ach-induced maximum relaxation; Ach-induced maximal relaxation ([4]; rings incubated with H2S donor 100 μM 30 min and 500 μM pyrogallol last 15 min): not able to reduce pyrogallol-induced endothelium impairment; Effect of glibenclamide on the concentration-response curve / EC50 (rat aorta strips): almost the same
O=C(O)c1ccc(-c2ssc(=S)c2-c2ccccc2)cc1 [Compound 9] | 98.6 ± 0.3% | 78.1 ± 0.3% | 94.2 ± 0.2% | 90.0 ± 0.8% | 83 ± 1% | 92.6 ± 0.8% |  | Stability (% compound ± SE), buffer + cysteine (50×) ([1]; 6 h): 94.9 ± 0.7%; EC50 (rat aorta strips): 78 ± 7 µM; Effect of glibenclamide on the concentration-response curve / EC50 (rat aorta strips): significantly rightward shifted
COC(=O)c1ccc(-c2ssc(=S)c2-c2ccccc2)cc1 [Compound 10] |  |  |  |  |  |  | 2.4 h | activation at 10 µM (rat aorta strips): 29%
O=C(O)c1ccc(-c2cssc2=S)cc1 [Compound 11] | 99.0 ± 0.3% | 37.6 ± 0.1% | 96.3 ± 0.2% | 90.0 ± 0.9% | 53 ± 2% | 94.8 ± 3.2% |  | Stability (% compound ± SE), buffer + cysteine (50×) ([1]; 6 h): 82.6 ± 0.2%; activation at 100 µM (rat aorta strips; 100 μM): 42%
CCOC(=O)c1ccc(-c2cssc2=S)cc1 [Compound 12] |  |  |  |  |  |  | 2.7 h | Effect of glibenclamide on the concentration-response curve / EC50 (rat aorta strips): almost the same
O=C(O)COc1ccc(-c2cc(=S)ss2)cc1 [Compound 13] | 99.0 ± 0.4% | 81.9 ± 0.1% | 99.2 ± 0.1% | 96.0 ± 0.8% | 94.3 ± 2% | 101.8 ± 1.4% |  | Stability (% compound ± SE), buffer + cysteine (50×) ([1]; 6 h): 96.6 ± 0.1%; activation at 100 µM (rat aorta strips; 100 μM): 39%
CCOC(=O)COc1ccc(-c2cc(=S)ss2)cc1 [Compound 14] |  |  |  |  |  |  | 0.5 h | activation at 10 µM (rat aorta strips): 37%
O=C(O)c1csc(=S)s1 [Compound 15] | 100.0 ± 0.2% | 96.6 ± 1.0% | 99.2 ± 0.1% | 95 ± 1% | 94.8 ± 2% | 100.0 ± 1.0% |  | activation at 300 µM (rat aorta strips): 17%
COC(=O)c1csc(=S)s1 [Compound 16] |  |  |  |  |  |  | 1.5 h | activation at 100 µM (rat aorta strips; 100 μM): 25%
NC(=S)c1ccc(C(=O)O)cc1 [Compound 17] | 97.6 ± 0.2% | 25.0 ± 0.6% | 91.6 ± 0.3% | 85.0 ± 0.1% | 64.7 ± 0.2% | 82.3 ± 0.4% |  | Stability (% compound ± SE), buffer + cysteine (50×) ([1]; 6 h): 84.1 ± 0.2%; activation at 300 µM (rat aorta strips): 27%
COC(=O)c1ccc(C(N)=S)cc1 [Compound 18] |  |  |  |  |  |  | 3.7 h | activation at 10 µM (rat aorta strips): 33%
O.Oc1cc(O)c2c(c1)O[C@H](c1ccc(O)c(O)c1)[C@@H](O)C2 [catechin, reference compound] |  |  |  |  |  |  |  | Ach-induced maximal relaxation ([4]; rings incubated with catechin 10 mM and 500 μM pyrogallol): 77 ± 3%
Oc1cccc(O)c1O [pyrogallol, reference compound] |  |  |  |  |  |  |  | Maximum Ach-induced relaxation ([4]; rings incubated with 500 μM pyrogallol alone for 15 min (control 80 ± 3%)): 15 ± 3%
